By Ki is commonly meant the equilibrium dissociation constant of an inhibitor or competing ligand from its target. One may read the EC50 as the concentration that produces a half-maximal response.

The values that follow come from patent US7432257B2, “Piperdinyl-phenoxazine and phenothiazine derivatives as δ-opioid modulators” (Janssen Pharmaceutica N.V., priority 2005, dated 2008).

A value given as a limit tells only on which side of the number the result lay.

Test [1] concerns the target T1, delta opioid receptor (Rattus norvegicus, UniProt P33533).
T1 construct: from tissue; host or cells: Forebrain of male Wistar rats, particulate membrane preparation
The test can be described thus: Rat Brain Delta Opioid Receptor Binding Assay. The conditions noted are these: rat forebrain membranes; [3H]DPDPE or [3H]naltrindole, 25° C., 2.5 h.

The target of test [2] is T2, delta opioid receptor (NG108-15 cell membranes) (Mus musculus, UniProt P32300).
T2 construct: NG108-15 cell membranes were purchased from Applied Cell Sciences (Rockville, Md.); host or cells: NG108-15 cell membranes (purchased)
T2 sequence (P32300 whole entry): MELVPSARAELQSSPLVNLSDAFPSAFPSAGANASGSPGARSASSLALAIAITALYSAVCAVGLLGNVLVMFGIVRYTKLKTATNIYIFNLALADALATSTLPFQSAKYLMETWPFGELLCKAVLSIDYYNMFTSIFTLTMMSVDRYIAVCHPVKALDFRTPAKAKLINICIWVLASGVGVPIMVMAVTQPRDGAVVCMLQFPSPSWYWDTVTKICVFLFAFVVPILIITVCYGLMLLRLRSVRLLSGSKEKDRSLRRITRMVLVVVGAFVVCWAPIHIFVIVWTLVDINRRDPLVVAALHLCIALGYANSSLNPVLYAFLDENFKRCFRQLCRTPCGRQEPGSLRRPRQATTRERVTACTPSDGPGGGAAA
The test can be described thus: [35S]GTPγS Binding Assay in NG108-15 Cell Membranes (Delta Opioid). The test is classed as biochemical.

The target in test [3] is T3, mu opioid receptor (Rattus norvegicus, UniProt P33535).
T3 construct: from tissue; host or cells: Forebrain of male Wistar rats, particulate membrane preparation
T3 sequence (P33535 whole entry): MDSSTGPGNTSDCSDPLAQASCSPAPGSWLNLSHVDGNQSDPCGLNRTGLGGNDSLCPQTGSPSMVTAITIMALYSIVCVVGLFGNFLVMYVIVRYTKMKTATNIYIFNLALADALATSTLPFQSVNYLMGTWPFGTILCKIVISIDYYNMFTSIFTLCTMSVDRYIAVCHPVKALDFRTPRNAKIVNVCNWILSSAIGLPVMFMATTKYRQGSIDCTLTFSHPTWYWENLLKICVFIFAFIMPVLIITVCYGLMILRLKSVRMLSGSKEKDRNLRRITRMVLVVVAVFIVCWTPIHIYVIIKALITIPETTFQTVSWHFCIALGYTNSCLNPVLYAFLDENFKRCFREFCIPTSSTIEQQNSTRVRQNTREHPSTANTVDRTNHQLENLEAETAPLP
The test is described as follows: Rat Brain Mu Opioid Receptor Binding Assay. Conditions: rat forebrain membranes; [3H]DAMGO, 25° C., 2.5 h.

The target in test [4] is hMOR (CHO-hMOR cell membranes) (Homo sapiens, UniProt P35372). The test is described as follows: [35S]GTPγS Binding Assays in CHO-hMOR Cell Membranes. The test is classed as biochemical. Conditions: read-out: mu GTPγS EC50. (Binding of GTPγS marks nucleotide exchange on a G protein.)
hMOR (CHO-hMOR cell membranes), sequence (P35372 whole entry): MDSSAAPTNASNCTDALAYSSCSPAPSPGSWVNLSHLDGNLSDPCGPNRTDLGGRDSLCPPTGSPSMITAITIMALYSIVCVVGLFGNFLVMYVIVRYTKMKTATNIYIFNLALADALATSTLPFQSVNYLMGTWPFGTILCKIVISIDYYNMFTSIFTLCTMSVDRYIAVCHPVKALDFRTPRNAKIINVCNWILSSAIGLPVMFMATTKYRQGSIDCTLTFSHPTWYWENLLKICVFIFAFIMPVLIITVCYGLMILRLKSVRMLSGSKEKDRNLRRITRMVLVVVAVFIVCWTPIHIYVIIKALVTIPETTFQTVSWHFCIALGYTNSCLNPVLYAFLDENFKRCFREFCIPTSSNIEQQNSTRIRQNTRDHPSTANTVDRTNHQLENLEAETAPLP

T1 sequence (P33533 whole entry): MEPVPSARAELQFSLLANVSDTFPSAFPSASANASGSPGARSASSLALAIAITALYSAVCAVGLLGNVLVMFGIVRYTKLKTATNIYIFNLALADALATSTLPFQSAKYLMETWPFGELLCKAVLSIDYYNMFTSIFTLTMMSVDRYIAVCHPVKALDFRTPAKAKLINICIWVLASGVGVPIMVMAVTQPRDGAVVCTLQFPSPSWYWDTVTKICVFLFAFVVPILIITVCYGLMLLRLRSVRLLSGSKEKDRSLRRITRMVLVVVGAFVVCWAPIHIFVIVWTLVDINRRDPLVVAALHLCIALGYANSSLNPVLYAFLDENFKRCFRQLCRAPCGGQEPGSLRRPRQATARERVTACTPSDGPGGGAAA

With `N#Cc1ccc2c(c1)Oc1ccccc1N2C1CCNCC1` [Compound 11a, 10-Piperidin-4-yl-10H-phenoxazine-3-carbonitrile], the Ki was 436 nM in test [1] and 5820 nM in test [3]. The values for the EC50 in test [2] and in test [4] were 1930 nM and > 10000 nM, respectively.
Consider `COc1cccc2c1Oc1cc(C(=O)N(C)C)ccc1N2C1CCN(Cc2ccccc2)CC1` [Compound 5d, 10-(1-Benzyl-piperidin-4-yl)-6-methoxy-10H-phenoxazine-3-carboxylic acid dimethylamide], for which, in test [1], the Ki came to 374 nM.
In turn, `COc1cccc2c1Oc1cc(-c3ccncc3)ccc1N2C1CCNCC1` (single isomer, unassigned) [Compound 5p, 6-Methoxy-10-piperidin-4-yl-3-pyridin-4-yl-10H-phenoxazine] came in with a Ki in test [1] of 589 nM.
Consider `CC(=O)Nc1ccccc1-c1ccc2c(c1)Sc1ccccc1N2C1CCN(Cc2ccccn2)CC1` [Compound 6g, N-{2-[10-(1-Pyridin-2-ylmethyl-piperidin-4-yl)-10H-phenothiazin-3-yl]-phenyl}-acetamide], for which the figures for the Ki in test [1] and in test [3] were 255 nM and 837 nM, respectively.
On to `CCN(CC)C(=O)c1ccc2c(c1)Oc1ccccc1N2C1CCN(Cc2ccoc2)CC1` [Compound 10r, 10-(1-Furan-3-ylmethyl-piperidin-4-yl)-10H-phenoxazine-3-carboxylic acid diethylamide], for which, in test [1], the Ki stood at 655 nM.
Still for that read-out and setting: for `CC(=O)Nc1ccccc1-c1ccc2c(c1)Oc1ccccc1N2C1CCN(Cc2ncc[nH]2)CC1` [Compound 7j, N-(2-{10-[1-(1H-Imidazol-2-ylmethyl)-piperidin-4-yl]-10H-phenoxazin-3-yl}-phenyl)-acetamide] the value was 249 nM.
Same read-out and setting: for `Oc1cccc2c1Oc1cc(-c3ccncc3)ccc1N2C1CCNCC1` (single isomer, unassigned) [Compound 4p, 10-Piperidin-4-yl-7-pyridin-4-yl-10H-phenoxazin-4-ol] the value was 535 nM.
For the molecule `NC(=O)c1ccc2c(c1)Oc1ccccc1N2C1CCNCC1` [Compound 12a, 10-Piperidin-4-yl-10H-phenoxazine-3-carboxylic Acid amide], the results for the Ki in test [1] and in test [3] were 682 nM and 1240 nM, respectively. Further, the EC50 is 9250 nM in test [2] and > 10000 nM in test [4].
`CC(=O)Nc1ccccc1-c1ccc2c(c1)Oc1ccccc1N2C1CCN(Cc2ccccn2)CC1` [Compound 5j, N-{2-[10-(1-Pyridin-2-ylmethyl-piperidin-4-yl)-10H-phenoxazin-3-yl]-phenyl}-acetamide]: the Ki in test [1] amounted to 576 nM.
Still for that read-out and setting: for `c1ccc(CN2CCC(N3c4ccccc4Oc4cc(-c5ccncc5)ccc43)CC2)nc1` [Compound 5k, 3-Pyridin-4-yl-10-(1-pyridin-2-ylmethyl-piperidin-4-yl)-10H-phenoxazine] the value was 1200 nM.
Turning to `CC(=O)Nc1ccccc1-c1ccc2c(c1)Oc1ccccc1N2C1CCN(Cc2ccccc2)CC1` [Compound 5h, N-{2-[10-(1-Benzyl-piperidin-4-yl)-10H-phenoxazin-3-yl]-phenyl}-acetamide], the Ki amounted to 400 nM in test [1] and 3320 nM in test [3].
In turn, `O=C(c1ccc2c(c1)Oc1ccccc1N2C1CCN(Cc2ccccn2)CC1)N1CC[C@H](O)C1` [Compound 15r, (3-(S)-Hydroxypyrrolidin-1-yl)-[10-(1-pyridin-2-ylmethyl-piperidin-4-yl)-10H-phenoxazin-3-yl]-methanone] showed a Ki in test [1] of 203 nM.
Same read-out and setting: for `c1ccc(CN2CCC(N3c4ccccc4Oc4cc(-c5nnn[nH]5)ccc43)CC2)nc1` [Compound 10a, 10-(1-Pyridin-2-ylmethyl-piperidin-4-yl)-3-(1H-tetrazol-5-yl)-10H-phenoxazine] the value was 227 nM.
Same read-out and setting: for `CCN(CC)C(=O)c1ccc2c(c1)Oc1ccccc1N2C1CCN(Cc2nccs2)CC1` [Compound 9r, 10-(1-Thiazol-2-ylmethyl-piperidin-4-yl)-10H-phenoxazine-3-carboxylic acid diethylamide] the value was 300 nM; for `O=C(c1ccc2c(c1)Oc1ccccc1N2C1CCN(Cc2ccoc2)CC1)N1CC[C@H](O)C1` [Compound 16r, [10-(1-Furan-3-ylmethyl-piperidin-4-yl)-10H-phenoxazin-3-yl]-(3-(S)-Hydroxypyrrolidin-1-yl)-methanone], 189 nM.
Same read-out and setting: the figure for `CC(=O)Nc1ccccc1-c1ccc2c(c1)Oc1ccccc1N2C1CCN(Cc2ccoc2)CC1` [Compound 3j, N-{2-[10-(1-Furan-3-ylmethyl-piperidin-4-yl)-10H-phenoxazin-3-yl]-phenyl}-acetamide] is 2280 nM; for `O=C(c1ccc2c(c1)Oc1ccccc1N2C1CCN(Cc2ccccc2)CC1)N1CC[C@H](O)C1` [Compound 13r, [10-(1-Benzyl-piperidin-4-yl)-10H-phenoxazin-3-yl]-(3-(S)-Hydroxypyrrolidin-1-yl)-methanone] it is 465 nM.
On to `c1ccc2c(c1)Oc1cc(-c3nnn[nH]3)ccc1N2C1CCN(Cc2ncc[nH]2)CC1` [Compound 7a, 10-[1-(1H-Imidazol-2-ylmethyl)-piperidin-4-yl]-3-(1H-tetrazol-5-yl)-10H-phenoxazine], for which the Ki stood at 655 nM in test [1] and 2770 nM in test [3].
Turning to `c1ccc(CN2CCC(N3c4ccccc4Sc4cc(-c5cccnc5)ccc43)CC2)nc1` [Compound 2f, 3-Pyridin-3-yl-10-(1-pyridin-2-ylmethyl-piperidin-4-yl)-10H-phenothiazine], the Ki turned out to be 365 nM in test [1] and 2850 nM in test [3].
As for `CCNC(=O)c1ccc2c(c1)Sc1ccccc1N2C1CCN(Cc2cccs2)CC1` [Compound 4m, 10-(1-Thiophen-2-ylmethyl-piperidin-4-yl)-10H-phenothiazine-3-carboxylic acid ethylamide], the Ki in test [1] turned out to be 784 nM.
